{"source": "paper PMC8002323", "about": "(Molecules, 2021)", "key": {"Aβ1–42 [1]": {"biological_target": "T1, Aβ1–42 (Homo sapiens, UniProt P05067)", "T1 sequence (P05067 672-713 limits assumed)": "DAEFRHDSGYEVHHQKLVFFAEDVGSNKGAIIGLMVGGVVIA", "experiment": "Inhibition of self-induced Aβ1–42 aggregation (thioflavin-T fluorescence method)", "details": "read-out: Aβ1–42 Aggreg. Inhib.", "procedure": "Inhibitory capacity of the compounds for the Aβ1–42 aggregation was assessed based on the fluorescence properties of thioflavine T (ThT), measured with a Varian Cary Eclipse spectrofluorometer.\nA previously prepared solution of Aβ1–42 was used.\nTo the resulting alkaline Aβ1–42 solution was added phosphate buffer (pH 8.0). The compounds tested were diluted in MeOH (1 mg/mL) and then further diluted in phosphate buffer. Two different types of experiments were prepared in a final volume of 60 μL. The solution for the control ligand assay consists in 30 µL of phosphate buffer and 30 µL of Aβ1–42 solution, to evaluate the aggregation without any inhibition, while the solution for the ligand assay consists of 20 µL of phosphate buffer, 30 µL of Aβ1–42 solution and 10 µL of the ligand solution, to evaluate the effect of the ligand in the aggregation. For each experiment a blank sample, without Aβ1–42, is used to monitor the effect of the compounds in the fluorescence. These samples were left incubating in a water bath (CERTOMAT WR), for 24 h, at 37 °C with gentle shaking [14].\nA glycine-NaOH buffer (pH 8.5) containing ThT (5 μM) was added to each sample. Samples were placed in a microplate and the fluorescence signal was monitored at 446 nm (λexc) and 490 nm (λem) [40].\n(2) %I=100−Fi/F0× 100 where Fi and F0 are the fluorescence intensities in the presence and absence of the compound, respectively, minus the fluorescence intensities of the respective blanks. Statistical analysis was performed in Microsoft Office Excel®."}, "[2]": {"biological_target": "T2, AChE (type VI-S, from electric eel) (Electrophorus electricus, UniProt O42275)", "T2 construct": "purchased", "T2 sequence (O42275 24-633)": "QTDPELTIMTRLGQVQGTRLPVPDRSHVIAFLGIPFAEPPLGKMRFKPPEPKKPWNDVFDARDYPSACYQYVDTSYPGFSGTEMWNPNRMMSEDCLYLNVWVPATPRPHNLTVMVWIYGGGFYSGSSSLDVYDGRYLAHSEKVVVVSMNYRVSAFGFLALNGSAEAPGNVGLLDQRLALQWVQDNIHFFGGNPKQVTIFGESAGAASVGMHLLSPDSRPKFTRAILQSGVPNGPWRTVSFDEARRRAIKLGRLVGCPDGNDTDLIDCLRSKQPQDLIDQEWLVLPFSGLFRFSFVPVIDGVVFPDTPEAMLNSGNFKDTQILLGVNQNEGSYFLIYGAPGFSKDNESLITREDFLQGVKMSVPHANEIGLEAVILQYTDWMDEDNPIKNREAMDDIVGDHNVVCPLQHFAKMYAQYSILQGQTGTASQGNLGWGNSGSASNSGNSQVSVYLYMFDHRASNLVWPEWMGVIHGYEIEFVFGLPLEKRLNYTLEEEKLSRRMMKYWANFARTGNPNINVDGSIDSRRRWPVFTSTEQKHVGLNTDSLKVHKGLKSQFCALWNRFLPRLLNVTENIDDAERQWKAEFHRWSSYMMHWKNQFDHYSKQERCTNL", "experiment": "biochemical", "assay_type": "biochemical", "details": "for IC50: AChE from Electric eel, mean of two independent experiments ± SD, read-out: AChE Inhib. IC50 ± SD; for AChE inhibition (in words): AChE from electric eel", "experimental": "The acetylcholinesterase inhibitory activity was assessed by an adaptation of the Ellman’s method. The assay solution contained 4-(2-hydroxyethyl)-1-piperazineethanesulfonic acid (HEPES) buffer (50 mM, pH 8.0), 5,5′-dithiobis-(2-nitrobenzoic acid) (DTNB, 3 mM), the stock solution of each compound in methanol (1 mg/mL), AChE (type VI-S, from electric eel) and the required quantity of methanol to reach the desired volume of sample mixture in a 1 mL cuvette. Samples were incubated for 15 min and then 75 μL of acetylthiocholine iodide (AThChI) solution (16 mM) was added. The reaction was monitored for 5 min at 405 nm. Assays were run with a blank containing all the reagents but AChE. Reaction rates were calculated as well as the enzyme activity. A positive control reaction was performed using methanol as a sample solution. The fraction of enzyme inhibition due to the existence of rising concentration of the test compound was calculated using Equation (1), where vi = starting reaction rate in the presence of inhibitor; vo = starting reaction rate of the control reaction. (1) %I =100−100 × […]\nThe inhibition curves were achieved by plotting the percentage of enzymatic inhibition against inhibitor concentration and a calibration curve was got from which the linear regression parameters were obtained."}, "[3]": {"tested_on": "SH-SY5Y human neuroblastoma cells", "experiment": "Dose-response screening of cell viability (MTT reduction assay)", "assay_type": "cell-based", "details": "SH-SY5Y cells treated 25 h, 2.5–50 μM", "experimental": "(§1) SH-SY5Y human neuroblastoma cells (ATCC-CRL-2266) (American Type Culture Collection, Manassas, Virgínia, USA) were plated in DMEM/F12 (Dulbecco’s Modified Eagle Medium/Ham’s F-12 Nutrient Mixture; Thermo Fisher Scientific) with 10% heat inactivated fetal bovine serum, 50 U/mL penicillin and 50 U/mL streptomycin under a humidified atmosphere with 95% relative humidity at 37 °C at a 0.16 × 10^6 cells/mL density. Each of the tested substances (6, 7, 8, 9) were dissolved in DMSO to prepare a stock solution at a 25 mM concentration and stored at −20 °C until further use. SH-SY5Y cells were treated for 25 h with varying concentrations of compounds, in order to select the highest non-toxic concentration. The selected concentrations for each compound were: 40 µM final concentration for 6; 15 µM final concentration for 7; 30 µM final concentration for 8 and 2.5 µM final concentration for 9. […] For the neuroprotection assays, the incubation with Aβ1–42 or L-ascorbic acid/ferrous sulphate treatment was preceded with 1 h incubation of the compounds when needed. Pre-incubation was followed by 24 h treatment of Aβ1–42 or Fe/Asc, accounting a total of 25 h. Aβ1–42 was prepared as 276.9 µM stock in sterile water and administrated in the medium at a 2.5 µM final concentration. Ferrous sulphate was freshly prepared as 0.36 M stock in water and added to the medium at 2.5 mM final concentration. L-ascorbic acid was freshly prepared as 80 mM stock in water and added to the medium at 5 mM final concentration. Aβ1–42 was purchased from Bachem (Torrance, CA, USA) and ferrous sulphate and L-ascorbic acid from Sigma Chemical Co. (St. Louis, MO, USA).\nCellular viability was determined by employing the MTT (3-(4,5-dimethylthiazol-2-yl)-2,5-diphenyltetrazolium bromide) reduction assay, according to the Mosmann method. This colorimetric test consists in the ability of the succinate dehydrogenase enzyme from viable cells to metabolize the MTT into a formazan. In the end of treatments, cells medium was aspirated and cells were washed with 1 × PBS (phosphate-buffered saline) to remove dead cells. MTT solution (200 µL, 0.5 mg/mL) was added to each well and incubated for 2 h protected from light. Formazan precipitates were then dissolved in DMSO and absorbance measured at 570 nm. The ability to reduce MTT was expressed as a percentage of untreated, control cells."}, "SH-SY5Y cells": {"tested_on": "SH-SY5Y cells", "experiment": "Neuroprotective effect on Aβ42-induced toxicity (MTT reduction assay)", "assay_type": "cell-based, human", "details": "Aβ42 2.5 μM 24 h, 1 h pre-incubation; 7 (15 µM), 8 (30 µM), 9 (2.5 µM)", "experimental": "as §1\nCellular viability was determined by employing the MTT (3-(4,5-dimethylthiazol-2-yl)-2,5-diphenyltetrazolium bromide) reduction assay, according to the Mosmann method. […] Formazan precipitates were then dissolved in DMSO and absorbance measured at 570 nm. The ability to reduce MTT was expressed as a percentage of untreated, control cells."}, "Aβ1–42 [4]": {"biological_target": "T1, Aβ1–42", "details": "self-induced aggregation, literature value for DNP; ref [3],[27]; cited from earlier work"}}, "note": "“And” between values parts separate entries of the source, which are not always exact repeats. Equal values may be shown once.", "data": [{"compound": "Cc1ccc(S(=O)(=O)NCCN2CCN(Cc3ccccc3)CC2)cc1", "note": "[Compound 5, N-(2-(4-benzylpiperazin-1-yl)ethyl)-4-methylbenzenesulfonamide]", "values": [{"measurement": "inhibition at 40 µM", "setting": "Aβ1–42 [1]", "result": 41.8, "unit": "%"}, {"measurement": "IC50", "setting": "[2]", "result": "≥ 100", "unit": "µM"}, {"measurement": "AChE inhibition (in words)", "setting": "[2]", "result": "do not show significant inhibition"}]}, {"compound": "COc1ccc(S(=O)(=O)NCCN2CCN(Cc3ccccc3)CC2)cc1", "note": "[Compound 6, N-(2-(4-benzylpiperazin-1-yl)ethyl)-4-methoxybenzenesulfonamide]", "values": [{"measurement": "inhibition at 40 µM", "setting": "Aβ1–42 [1]", "result": 37.2, "unit": "%"}, {"measurement": "highest non-toxic concentration (selected concentration)", "setting": "[3]", "result": 40, "unit": "µM"}, {"measurement": "IC50", "setting": "[2]", "result": "89 ± 9", "unit": "µM"}, {"measurement": "AChE inhibition (in words)", "setting": "[2]", "result": "do not show significant inhibition"}]}, {"compound": "O=S(=O)(NCCN1CCN(Cc2ccccc2)CC1)c1ccc(-c2ccccc2)cc1", "note": "[Compound 7, N-(2-(4-benzylpiperazin-1yl)ethyl)-[1,1’-biphenyl]-4-sulfonamide]", "values": [{"measurement": "reversal of neurotoxicity induced by Aβ peptides (in words)", "setting": "SH-SY5Y cells", "result": "able to relapse the neurotoxicity induced by Aβ peptides"}, {"measurement": "inhibition at 40 µM", "setting": "Aβ1–42 [1]", "result": 34.6, "unit": "%"}, {"measurement": "highest non-toxic concentration (selected concentration)", "setting": "[3]", "result": 15, "unit": "µM"}, {"measurement": "IC50", "setting": "[2]", "result": "38.7 ± 0.2", "unit": "µM"}]}, {"compound": "COc1ccc(S(=O)(=O)NCC2CCN(Cc3ccccc3)CC2)cc1", "note": "[Compound 8, N-((1-benzylpiperidin-4-yl)methyl)-4-methoxybenzenesulfonamide]", "values": [{"measurement": "reversal of neurotoxicity induced by Aβ peptides (in words)", "setting": "SH-SY5Y cells", "result": "more modest results in reverting neurotoxicity"}, {"measurement": "inhibition at 40 µM", "setting": "Aβ1–42 [1]", "result": 64.2, "unit": "%"}, {"measurement": "highest non-toxic concentration (selected concentration)", "setting": "[3]", "result": 30, "unit": "µM"}, {"measurement": "IC50", "setting": "[2]", "result": "1.6 to 6.2 µM and 6.2 µM"}]}, {"compound": "O=S(=O)(NCC1CCN(Cc2ccccc2)CC1)c1ccc(-c2ccccc2)cc1", "note": "[Compound 9, N-((1-benzylpiperidin-4-yl)methyl)-[1,1’-biphenyl]-4-sulfonamide]", "values": [{"measurement": "reversal of neurotoxicity induced by Aβ peptides (in words)", "setting": "SH-SY5Y cells", "result": "more modest results in reverting neurotoxicity"}, {"measurement": "inhibition at 40 µM", "setting": "Aβ1–42 [1]", "result": 60.7, "unit": "%"}, {"measurement": "highest non-toxic concentration (selected concentration)", "setting": "[3]", "result": 2.5, "unit": "µM"}, {"measurement": "IC50", "setting": "[2]", "result": "1.6 to 6.2 µM and 1.6 µM"}]}, {"compound": "COc1cc2c(cc1OC)C(=O)C(CC1CCN(Cc3ccccc3)CC1)C2", "note": "(stereo not drawn) [DNP, donepezil]", "values": [{"measurement": "Aβ1–42 Aggreg. Inhib.", "setting": "Aβ1–42 [4]", "result": "<5", "unit": "%"}]}, {"compound": "Nc1c2c(nc3ccccc13)CCCC2", "note": "[Tacrine, tacrine, reference compound]", "values": [{"measurement": "inhibition at 40 µM", "setting": "Aβ1–42 [1]", "result": 54.5, "unit": "%"}]}]}
